Reference: ChEMBL document CHEMBL1201862, “PubChem BioAssay data set” (2004)
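Assay format: 96-well plates, 48-hour exposure. GI50 marks 50% less growth.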 The source made the active and inactive calls. Rule as the data show it: active = GI50 up to about 1.1 µM and inactive = higher.

Assays:
Test in all cases: inhibition of tumour cell growth, NCI panel, 48 h
UACC-257 = tested on: UACC-257
OVCAR-5 = tested on: OVCAR-5
HCC 2998 = tested on: HCC 2998
TK-10 = tested on: TK-10
SNB-75 = tested on: SNB-75
HOP-62 = tested on: HOP-62
UACC-62 = tested on: UACC-62
786-0 = tested on: 786-0
A549 = tested on: A549
M14 = tested on: M14
COLO 205 = tested on: COLO 205
SW-620 = tested on: SW-620
UO-31 = tested on: UO-31
XF498 = tested on: XF498
RXF 631 = tested on: RXF 631
OVCAR-8 = tested on: OVCAR-8
OVCAR-3 = tested on: OVCAR-3
RPMI-8226 = tested on: RPMI-8226
EKVX = tested on: EKVX
M19-MEL = tested on: M19-MEL
LXFL 529 = tested on: LXFL 529
CAKI-1 = tested on: CAKI-1
IGROV-1 = tested on: IGROV-1
SK-OV-3 = tested on: SK-OV-3
SR = tested on: SR
SF-295 = tested on: SF-295
HOP-18 = tested on: HOP-18
DMS-273 = tested on: DMS-273
SNB-19 = tested on: SNB-19
KM-20L2 = tested on: KM-20L2
CCRF-CEM = tested on: CCRF-CEM
ACHN = tested on: ACHN
HCT-116 = tested on: HCT-116
HCT-15 = tested on: HCT-15
U-251 = tested on: U-251
NCI-H226 = tested on: NCI-H226
A498 = tested on: A498
SF-268 = tested on: SF-268
SK-MEL-28 = tested on: SK-MEL-28
SK-MEL-2 = tested on: SK-MEL-2
LOX IMVI = tested on: LOX IMVI
KM12 = tested on: KM12
SF-539 = tested on: SF-539
HL-60 = tested on: HL-60
Malme-3M = tested on: Malme-3M
DLD-1 = tested on: DLD-1
NCI-H23 = tested on: NCI-H23
SNB-78 = tested on: SNB-78
NCI-H460 = tested on: NCI-H460
RXF 393 = tested on: RXF 393
SN12C = tested on: SN12C
SK-MEL-5 = tested on: SK-MEL-5
DMS-114 = tested on: DMS-114
K562 = tested on: K562
MOLT-4 = tested on: MOLT-4
HOP-92 = tested on: HOP-92
OVCAR-4 = tested on: OVCAR-4
NCI-H522 = tested on: NCI-H522
HT-29 = tested on: HT-29

For `CCCCCCCCCCCCC(CCCCCCCCCCCC)OP(=O)(O)O`, the GI50 (UACC-257) was > 100 µM (inactive), the GI50 (OVCAR-5) was > 100 µM (inactive) and the GI50 (HCC 2998) was > 100 µM (inactive). For the same compound, the GI50 (TK-10) was > 100 µM (inactive), the GI50 (SNB-75) was 43.4 µM (inactive) and the GI50 (HOP-62) was > 100 µM (inactive). The GI50 (UACC-62) was > 100 µM (inactive), the GI50 (786-0) was > 100 µM (inactive) and the GI50 (A549) was > 100 µM (inactive). For the same compound, the GI50 (M14) was > 100 µM (inactive), the GI50 (COLO 205) was > 100 µM (inactive) and the GI50 (SW-620) was > 100 µM (inactive). For the same compound, the GI50 (UO-31) was 55.6 µM (inactive), the GI50 (XF498) was > 100 µM (inactive) and the GI50 (RXF 631) was 94.4 µM (inactive). The GI50 (OVCAR-8) was > 100 µM (inactive), the GI50 (OVCAR-3) was > 100 µM (inactive) and the GI50 (RPMI-8226) was 56.6 µM (inactive). For the same compound, the GI50 (EKVX) was > 100 µM (inactive), the GI50 (M19-MEL) was > 100 µM (inactive) and the GI50 (LXFL 529) was > 100 µM (inactive). For the same compound, the GI50 (CAKI-1) was > 100 µM (inactive), the GI50 (IGROV-1) was 87.3 µM (inactive) and the GI50 (SK-OV-3) was > 100 µM (inactive). The GI50 (SR) was > 100 µM (inactive), the GI50 (SF-295) was > 100 µM (inactive) and the GI50 (HOP-18) was > 100 µM (inactive). For the same compound, the GI50 (DMS-273) was > 100 µM (inactive), the GI50 (SNB-19) was 91.6 µM (inactive) and the GI50 (KM-20L2) was > 100 µM (inactive). The GI50 (CCRF-CEM) was > 100 µM (inactive), the GI50 (ACHN) was 76.2 µM (inactive) and the GI50 (HCT-116) was 73.3 µM (inactive). The GI50 (HCT-15) was 88.3 µM, the GI50 (U-251) was 34 µM (inactive) and the GI50 (NCI-H226) was 75.9 µM (inactive). The GI50 (A498) was 20.6 µM (inactive), the GI50 (SF-268) was > 100 µM (inactive) and the GI50 (SK-MEL-28) was > 100 µM (inactive). For the same compound, the GI50 (SK-MEL-2) was 65.2 µM (inactive), the GI50 (LOX IMVI) was > 100 µM (inactive) and the GI50 (KM12) was > 100 µM (inactive). The GI50 (SF-539) was 46.2 µM (inactive), the GI50 (HL-60) was 47.3 µM (inactive) and the GI50 (Malme-3M) was > 100 µM (inactive). The GI50 (DLD-1) was > 100 µM (inactive), the GI50 (NCI-H23) was > 100 µM (inactive) and the GI50 (SNB-78) was > 100 µM (inactive). The GI50 (NCI-H460) was > 100 µM (inactive), the GI50 (RXF 393) was > 100 µM (inactive) and the GI50 (SN12C) was > 100 µM (inactive). The GI50 (SK-MEL-5) was > 100 µM (inactive), the GI50 (DMS-114) was > 100 µM (inactive) and the GI50 (K562) was 62.2 µM (inactive). For the same compound, the GI50 (MOLT-4) was 59.2 µM (inactive), the GI50 (HOP-92) was 56.1 µM (inactive) and the GI50 (OVCAR-4) was > 100 µM (inactive). For the same compound, the GI50 (NCI-H522) was 84.7 µM (inactive) and the GI50 (HT-29) was > 100 µM (inactive).
